Assay results reported in the NIST ThermoML archive (doi:10.1021/acs.jced.6b00733).
Numbers after ± are expanded uncertainties. Blank lines part the entries; values can stand above or below the compound they belong to.

Experiments:
[1] = Liquid, Ebulliometric method (Recirculating still)
[2] = refractive index (Na D-line) (dimensionless); details: 298.15 K; 101.3 kPa; Liquid; Standard Abbe refractometry

Structure (SMILES): CC(C)CCO [3-methylbutan-1-ol]
- vapor or sublimation pressure ([1]; 404.05 K): 101.33 ± 1 kPa
- refractive index [2]: 1.4042 ± 0.0004

Structure (SMILES): CC(=O)OCCC(C)C [3-methylbutyl ethanoate]
- vapor or sublimation pressure ([1]; 415.19 K): 101.33 ± 1 kPa
- refractive index [2]: 1.3977 ± 0.0004

Structure (SMILES): Cc1ccccc1 [toluene]
- vapor or sublimation pressure ([1]; 383.82 K): 101.33 ± 1 kPa

Further lines, results first:

- vapor or sublimation pressure ([1]; 353.27 K): 101.33 ± 1 kPa
Structure (SMILES): c1ccccc1 [benzene]

- vapor or sublimation pressure ([1]; 463.93 K): 101.33 ± 1 kPa
- refractive index [2]: 1.4779 ± 0.0004
Structure (SMILES): C[S+](C)[O-] [dimethyl sulfoxide]
